Measured values reported in patent US20240383915A1, “OXAZEPINE COMPOUNDS AND USES THEREOF IN THE TREATMENT OF CANCER” (Genentech, Inc., priority 2021, published 2024).

Columns and labels:
SW480 cells = test: SW480 proliferation assay; assay type: cell-based; settings: Homo sapiens, SW480, SW480; read-out: SW480 Prolif IC50 (G12V)
KRas(G12V) = KRas(G12V) (Homo sapiens (Human), UniProt P01116, G12V); test: KRas(G12V) GDP HTRF (BODIPY-GDP exchange TR-FRET); assay type: biochemical
KRas = KRas (Homo sapiens (Human), UniProt P01116); test: KRas GDP HTRF (BODIPY-GDP exchange TR-FRET); assay type: biochemical
Summary of the method: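 Inhibition of SOS1-mediated exchange of BODIPY-GDP on KRAS G12D, started with 3 nM recombinant human SOS1 and 300 nM BODIPY-GDP and read after 60 min. TR-FRET excitation 337 nm, ratio 520/490 nm ×10,000. IC50 from 4-parameter Hill fit of normalized data.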

PC-9 cells = test: PC9 proliferation assay; assay type: cell-based, human; settings: Homo sapiens, PC-9, PC9; read-out: PC9 Prolif IC50 (G12V)

Chain of KRas(G12V) (P01116-2 other isoform, or with tags, fused parts or gaps G12V): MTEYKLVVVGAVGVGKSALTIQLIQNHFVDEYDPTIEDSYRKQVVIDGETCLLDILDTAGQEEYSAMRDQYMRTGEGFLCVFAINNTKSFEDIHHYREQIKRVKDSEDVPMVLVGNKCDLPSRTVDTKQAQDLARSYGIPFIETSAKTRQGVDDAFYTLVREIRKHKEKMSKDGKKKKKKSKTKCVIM
Chain of KRas (P01116-2 other isoform, or with tags, fused parts or gaps): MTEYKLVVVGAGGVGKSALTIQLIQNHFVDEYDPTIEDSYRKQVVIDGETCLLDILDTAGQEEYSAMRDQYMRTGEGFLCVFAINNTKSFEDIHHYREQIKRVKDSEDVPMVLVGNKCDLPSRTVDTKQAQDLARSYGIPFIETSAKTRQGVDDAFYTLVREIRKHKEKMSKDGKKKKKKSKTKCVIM

## Cc1cc(N)nc(-c2c(Cl)c3c4c(nc(OC[C@@H]5CC[C@H]6COCCN65)nc4c2F)N([C@H](C)c2nccnc2N)CCO3)c1C(F)(F)F (atropisomer, axis not shown; (aS)) [Example 104a, 3-((R)-1-((R)-9-(6-amino-4-methyl-3-(trifluoromethyl)pyridin-2-yl)-8-chloro-10-fluoro-2-(((6S,8aS)-hexahydro-1H-pyrrolo[2,1-c][1,4]oxazin-6-yl)methoxy)-5,6-dihydro-4H-[1,4]oxazepino[5,6,7-de]quinazolin-4-yl)ethyl)pyrazin-2-amine]
SW480 cells
  IC50: 12 nM
KRas(G12V)
  IC50: 0.15 nM
KRas
  IC50: 0.447 nM

## Cc1c(F)c(N)cc(-c2c(Cl)c3c4c(nc(OC[C@@]56CCCN5C[C@H](F)C6)nc4c2F)N([C@H](C)c2cccnc2N)CCO3)c1C(F)(F)F (atropisomer, axis not shown; (aS)) [Example 76a, 3-((R)-1-(9-((S)-5-amino-4-fluoro-3-methyl-2-(trifluoromethyl)phenyl)-8-chloro-10-fluoro-2-(((2R,7aS)-2-fluorotetrahydro-1H-pyrrolizin-7a(5H)-yl)methoxy)-5,6-dihydro-4H-[1,4]oxazepino[5,6,7-de]quinazolin-4-yl)ethyl)pyridin-2-amine]
SW480 cells
  IC50: 1.9 nM
KRas(G12V)
  IC50: 0.09 nM
KRas
  IC50: 0.102 nM

## COC(C)(C)COc1nc2c3c(c(Cl)c(-c4nc(N)cc(C)c4C(F)(F)F)c(F)c3n1)OCCN2[C@H](C)c1cccnc1N (atropisomer, axis not shown) [Example 110a, 6-((R)-4-((R)-1-(2-aminopyridin-3-yl)ethyl)-8-chloro-10-fluoro-2-(2-methoxy-2-methylpropoxy)-5,6-dihydro-4H-[1,4]oxazepino[5,6,7-de]quinazolin-9-yl)-4-methyl-5-(trifluoromethyl)pyridin-2-amine]
SW480 cells
  IC50: 98 nM
PC-9 cells
  IC50: 11000 nM

## Cc1cc(N)nc(-c2cc3nc(OC[C@]45CCCN4CC(F)(F)C5)nc4c3c(c2Cl)OCCN4Cc2cccnc2N)c1C(F)(F)F [Example 50, (R)-6-(4-((2-aminopyridin-3-yl)methyl)-8-chloro-2-((2,2-difluorotetrahydro-1H-pyrrolizin-7a(5H)-yl)methoxy)-5,6-dihydro-4H-[1,4]oxazepino[5,6,7-de]quinazolin-9-yl)-4-methyl-5-(trifluoromethyl)pyridin-2-amine]
SW480 cells
  IC50: 930 nM
PC-9 cells
  IC50: 6700 nM

## Cc1cc(N)nc(-c2cc3ncnc4c3c(c2Cl)OCCN4C)c1C(F)(F)F [Example 24, 6-(8-chloro-4-methyl-5,6-dihydro-4H-[1,4]oxazepino[5,6,7-de]quinazolin-9-yl)-4-methyl-5-(trifluoromethyl)pyridin-2-amine]
KRas(G12V)
  IC50: 4400 nM
KRas
  IC50: 30000 nM
PC-9 cells
  IC50: 20000 nM

## Cc1cc(N)nc(-c2c(Cl)c3c4c(nc(OC[C@@]56CCCN5C[C@H](F)C6)nc4c2F)N(Cc2cnc[nH]2)CCO3)c1C(F)(F)F (single isomer, unassigned) [Example 47a]
SW480 cells
  IC50: 20000 nM
PC-9 cells
  IC50: 7100 nM

## Cc1cc(N)nc(-c2cc3nc(OCC45COC(C4)C5)nc4c3c(c2Cl)OCCN4Cc2cccnc2N)c1C(F)(F)F [Example 36, 6-(2-((2-oxabicyclo[2.1.1]hexan-4-yl)methoxy)-4-((2-aminopyridin-3-yl)methyl)-8-chloro-5,6-dihydro-4H-[1,4]oxazepino[5,6,7-de]quinazolin-9-yl)-4-methyl-5-(trifluoromethyl)pyridin-2-amine]
SW480 cells
  IC50: 8200 nM
PC-9 cells
  IC50: 20000 nM

## Cc1cc(N)nc(-c2c(Cl)c3c4c(nc(OC[C@@H]5CC[C@H]6CO[C@@H](C)CN56)nc4c2F)N([C@H](C)c2cccnc2N)CCO3)c1C(F)(F)F (atropisomer, axis not shown; (aS)) [Example 93a, 6-((R)-4-((R)-1-(2-aminopyridin-3-yl)ethyl)-8-chloro-10-fluoro-2-(((3S,6S,8aS)-3-methylhexahydro-1H-pyrrolo[2,1-c][1,4]oxazin-6-yl)methoxy)-5,6-dihydro-4H-[1,4]oxazepino[5,6,7-de]quinazolin-9-yl)-4-methyl-5-(trifluoromethyl)pyridin-2-amine]
KRas(G12V)
  IC50: 0.09 nM
KRas
  IC50: 0.201 nM

## Cc1cc(N)nc(-c2c(Cl)c3c4c(nc(OCC56C[C@@H](F)CN5C[C@H](F)C6)nc4c2F)N([C@H](C)c2cccnc2N)CCO3)c1C(F)(F)F (atropisomer, axis not shown) [Example 98a, 6-((R)-4-((R)-1-(2-aminopyridin-3-yl)ethyl)-8-chloro-2-(((2R,6R)-2,6-difluorotetrahydro-1H-pyrrolizin-7a(5H)-yl)methoxy)-10-fluoro-5,6-dihydro-4H-[1,4]oxazepino[5,6,7-de]quinazolin-9-yl)-4-methyl-5-(trifluoromethyl)pyridin-2-amine]
KRas(G12V)
  IC50: 0.11 nM
KRas
  IC50: 0.557 nM

## Cc1cc(N)nc(-c2c(Cl)c3c4c(nc(OC[C@H]5CC[C@@H]6CN(CC(F)(F)F)CCN56)nc4c2F)N([C@H](C)c2cccnc2N)CCO3)c1C(F)(F)F (atropisomer, axis not shown; (aR)) [Example 129b, 6-((R)-4-((R)-1-(2-aminopyridin-3-yl)ethyl)-8-chloro-10-fluoro-2-(((6R,8aR)-2-(2,2,2-trifluoroethyl)octahydropyrrolo[1,2-a]pyrazin-6-yl)methoxy)-5,6-dihydro-4H-[1,4]oxazepino[5,6,7-de]quinazolin-9-yl)-4-methyl-5-(trifluoromethyl)pyridin-2-amine]
KRas(G12V)
  IC50: 0.32 nM
KRas
  IC50: 0.39 nM

## Cc1cc(N)nc(-c2c(Cl)c3c4c(nc(OC[C@H]5CC[C@@H]6CO[C@H](C)CN56)nc4c2F)N([C@H](C)c2cccnc2N)CCO3)c1C(F)(F)F (atropisomer, axis not shown; (aR)) [Example 93d, 6-((R)-4-((R)-1-(2-aminopyridin-3-yl)ethyl)-8-chloro-10-fluoro-2-(((3R,6R,8aR)-3-methylhexahydro-1H-pyrrolo[2,1-c][1,4]oxazin-6-yl)methoxy)-5,6-dihydro-4H-[1,4]oxazepino[5,6,7-de]quinazolin-9-yl)-4-methyl-5-(trifluoromethyl)pyridin-2-amine]
SW480 cells
  IC50: 1.1 nM
KRas(G12V)
  IC50: 0.07 nM
KRas
  IC50: 0.0849 nM

## Cc1cc(N)nc(-c2cc3ncnc4c3c(c2Cl)OCCN4Cc2cc(Cl)cnc2N)c1C(F)(F)F [Example 52, 6-[13-[(2-amino-5-chloro-3-pyridyl)methyl]-8-chloro-10-oxa-2,4,13-triazatricyclo[7.4.1.05,14]tetradeca-1,3,5(14),6,8-pentaen-7-yl]-4-methyl-5-(trifluoromethyl)pyridin-2-amine]
KRas(G12V)
  IC50: 2400 nM
KRas
  IC50: 9600 nM

## CNc1cncc(CN2CCOc3c(Cl)c(-c4nc(N)cc(C)c4C(F)(F)F)cc4ncnc2c34)c1 [Example 6, 6-(8-chloro-4-((5-(methylamino)pyridin-3-yl)methyl)-5,6-dihydro-4H-[1,4]oxazepino[5,6,7-de]quinazolin-9-yl)-4-methyl-5-(trifluoromethyl)pyridin-2-amine]
KRas(G12V)
  IC50: 1300 nM
KRas
  IC50: 6300 nM

## Cc1cc(N)nc(-c2cc3ncnc4c3c(c2Cl)OCCN4Cc2scnc2N)c1C(F)(F)F [Example 25, 5-((9-(6-amino-4-methyl-3-(trifluoromethyl)pyridin-2-yl)-8-chloro-5,6-dihydro-4H-[1,4]oxazepino[5,6,7-de]quinazolin-4-yl)methyl)thiazol-4-amine]
KRas(G12V)
  IC50: 510 nM
KRas
  IC50: 2000 nM

## Cc1cc(N)nc(-c2c(Cl)c3c4c(nc(OC[C@@]56CCCN5CC(F)(F)C6)nc4c2F)N([C@H](C)c2nccnc2N)CCO3)c1C(F)(F)F (atropisomer, axis not shown) [Example 165a, 3-((R)-1-((R)-9-(6-amino-4-methyl-3-(trifluoromethyl)pyridin-2-yl)-8-chloro-2-(((S)-2,2-difluorotetrahydro-1H-pyrrolizin-7a(5H)-yl)methoxy)-10-fluoro-5,6-dihydro-4H-[1,4]oxazepino[5,6,7-de]quinazolin-4-yl)ethyl)pyrazin-2-amine]
KRas(G12V)
  IC50: 0.69 nM
KRas
  IC50: 2.14 nM

## Cc1cc(N)nc(-c2cc3ncnc4c3c(c2Cl)OCCN4Cc2ccnnc2N)c1C(F)(F)F [Example 56, 4-((9-(6-amino-4-methyl-3-(trifluoromethyl)pyridin-2-yl)-8-chloro-5,6-dihydro-4H-[1,4]oxazepino[5,6,7-de]quinazolin-4-yl)methyl)pyridazin-3-amine]
KRas(G12V)
  IC50: 22 nM
KRas
  IC50: 160 nM

## Cc1cc(N)nc(-c2c(Cl)c3c4c(nc(OC[C@]56CCCN5CC(F)(F)C6)nc4c2F)N([C@H](C)c2nccnc2N)CCO3)c1C(F)(F)F (atropisomer, axis not shown) [Example 166b, 3-((R)-1-((S)-9-(6-amino-4-methyl-3-(trifluoromethyl)pyridin-2-yl)-8-chloro-2-(((R)-2,2-difluorotetrahydro-1H-pyrrolizin-7a(5H)-yl)methoxy)-10-fluoro-5,6-dihydro-4H-[1,4]oxazepino[5,6,7-de]quinazolin-4-yl)ethyl)pyrazin-2-amine]
KRas(G12V)
  IC50: 640 nM
KRas
  IC50: 1730 nM

## Cc1cc(N)nc(-c2c(Cl)c3c4c(nc(OC[C@@]56CCCN5CCOC6)nc4c2F)N([C@H](C)c2cccnc2N)CCO3)c1C(F)(F)F (atropisomer, axis not shown) [Example 128b, 6-((R)-4-((R)-1-(2-aminopyridin-3-yl)ethyl)-8-chloro-10-fluoro-2-(((S)-tetrahydro-1H-pyrrolo[2,1-c][1,4]oxazin-8a(6H)-yl)methoxy)-5,6-dihydro-4H-[1,4]oxazepino[5,6,7-de]quinazolin-9-yl)-4-methyl-5-(trifluoromethyl)pyridin-2-amine]
KRas(G12V)
  IC50: 0.19 nM
KRas
  IC50: 0.469 nM
